pEC50, pIC50: −log10 of the molar value. “Also recorded” adds a separate entry of the source. Where two headings read alike, the source gives them in different places.
Columns and labels:
[1] = tested on: NFAT; test: NFAT reporter gene assay (luciferase) in Jurkat cells; assay type: cell-based; conditions: luciferase-coupled NFAT reporter gene assay; for pIC50: read-out: In vitro inhibition NFAT reporter gene assay IC50
[2] = biological target: CnA (Homo sapiens, UniProt P62937+P63098+Q08209); assay type: biochemical; conditions: for pIC50: read-out: In vitro inhibition CnA IC50
CnA, sequence (P62937 whole entry, other chains not shown): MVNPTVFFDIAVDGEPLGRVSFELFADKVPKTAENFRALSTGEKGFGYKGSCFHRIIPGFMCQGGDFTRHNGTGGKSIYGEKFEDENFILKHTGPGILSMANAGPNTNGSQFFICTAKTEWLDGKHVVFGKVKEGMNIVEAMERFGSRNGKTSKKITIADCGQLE
CnA, sequence (P63098 2-170, other chains not shown): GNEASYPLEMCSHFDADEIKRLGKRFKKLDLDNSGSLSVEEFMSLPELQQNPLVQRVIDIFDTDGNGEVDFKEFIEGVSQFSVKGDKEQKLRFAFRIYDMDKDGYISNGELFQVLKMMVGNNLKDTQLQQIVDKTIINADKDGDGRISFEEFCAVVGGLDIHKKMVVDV

[3] = biological target: human CypA (Homo sapiens, UniProt P62937); assay type: biochemical; conditions: protease-coupled PPIase assay; read-out: In vitro inhibition human CypA IC50
human CypA, sequence (P62937 whole entry): as the sequence (P62937 whole entry, other chains not shown) above

[4] = tested on: NFAT-GFP; test: NFAT-GFP nuclear translocation assay; conditions: 40 nM compound, ionomycin 2 μM; yes = non-immunosuppressive
[5] = tested on: HCoV-NL63; test: microbe, parasite or virus in culture; assay type: cell-based; conditions: read-out: Inhibition of HCoV-NL63 in CaCo-2 EC50
[6] = tested on: HCoV-NL63 N protein; test: Western blot of N protein expression in HCoV-NL63-infected CaCo2 cells; assay type: cell-based; conditions: 48 hours, 0 to 20 μM
[7] = tested on: SARS-CoV-Replicon RNA; assay type: cell-based; conditions: BHK-21 cells, 20 hours, FIG. 11
[8] = tested on: HCoV-229E N protein; assay type: cell-based; conditions: 48 h
[9] = tested on: Mouse Hepatitis Virus (MHV-LUC); test: MHV-LUC replication in L929 cells, luciferase activity; conditions: micromolar concentration, FIG. 12
[10] = tested on: HCoV-229E-LUC; test: microbe, parasite or virus in culture; assay type: cell-based; conditions: for inhibition of 229E-LUC replication (in words): Huh-7.5 cells
[11] = tested on: Feline Coronavirus (FCoV-LUC); test: FCoV-LUC replication in Felis catus whole fetus (fcwf) cells, Renilla luciferase; assay type: cell-based; conditions: micromolar concentration, FIG. 10
[12] = tested on: lymphocyte proliferation; conditions: Sadeg et al. 1993; cited from earlier work
[13] = Human coronavirus 229E, Huh7.5, 18 h, read-out: EC50 HCoV-229E-LUC, 18 hrs p.I., Huh-7.5, MOI=0.1
[14] = Human coronavirus 229E, Huh7.5, 48 h, read-out: EC50 HCoV-229E-LUC, 48 hrs p.I., Huh-7.5, MOI=0.1
[15] = Human coronavirus NL63, Caco-2, 48 h

SMILES	pIC50 [3]	NFAT-GFP translocation in HEK-293 cells (to the nucleus) [4]	pEC50 [5]	concentration at which HCoV-NL63 N-protein decreases [6] [µM]	inhibition of 229E-LUC replication (in words) [10]	pEC50 [10, 13]	pEC50 [10, 14]	pEC50 [5, 15]	also measured
CCOP(=O)(CC=CCC(C)C(O)C1C(=O)NC(CC)C(=O)N(C)CC(=O)N(C)C(CC(C)C)C(=O)NC(C(C)C)C(=O)N(C)C(CC(C)C)C(=O)NC(C)C(=O)NC(C)C(=O)N(C)C(CC(C)C)C(=O)N(C)C(CC(C)C)C(=O)N(C)C(C(C)C)C(=O)N1C)OCC (mixture of isomers) [Compound 1]	8.04	yes	5.80	–	–	–	–	–	In vitro inhibition NFAT reporter gene assay IC50 [1]: no; In vitro inhibition CnA IC50 ([2]; binary PPIase/drug complexes): could not be inhibited at all and no
C/C=C/C[C@@H](C)[C@@H](O)[C@H]1C(=O)N[C@@H](CC)C(=O)N(C)[C@H](C)C(=O)N(CC)[C@@H](C(C)C)C(=O)N[C@@H](C(C)C)C(=O)N(C)[C@@H](CC(C)C)C(=O)N[C@@H](C)C(=O)N[C@H](C)C(=O)N(C)[C@@H](CC(C)C)C(=O)N(C)[C@@H](CC(C)C)C(=O)N(C)[C@@H](C(C)C)C(=O)N1C [ALV, Alisporivir]	–	yes	–	1.25	low micromolar range	5.56	5.86	6.10	inhibition of SARS-CoV-RNA replicon propagation (in words) [7]: inhibition; concentration at which HCoV-229E N protein is not detectable anymore ([8]; Western blot): 1.25 µM; inhibition of murine Coronavirus spread (in words) [9]: inhibits spread; inhibition of feline Coronavirus spread (in words) [11]: inhibits spread
CCC1NC(=O)C(C(O)C(C)CC=CCN(C)C)N(C)C(=O)C(C(C)C)N(C)C(=O)C(CC(C)C)N(C)C(=O)C(CC(C)C)N(C)C(=O)C(C)NC(=O)C(C)NC(=O)C(CC(C)C)N(C)C(=O)C(C(C)C)NC(=O)C(CC(C)C)N(C)C(=O)CN(C)C1=O (centres unmarked) [Compound 2]	–	yes	5.10	–	–	–	–	–	–
CCC1NC(=O)C(C(O)C(C)Cc2nc3ccc(C(=O)OC)cc3[nH]2)N(C)C(=O)C(C(C)C)N(C)C(=O)C(CC(C)C)N(C)C(=O)C(CC(C)C)N(C)C(=O)C(C)NC(=O)C(C)NC(=O)C(CC(C)C)N(C)C(=O)C(C(C)C)NC(=O)C(CC(C)C)N(C)C(=O)CN(C)C1=O (centres unmarked) [Compound 3]	7.92	yes	5.96	1.25	low micromolar range	–	–	–	pIC50 [2]: 5.16; pEC50 ([10]; 18 hrs p.I., Huh-7.5, MOI=0.1, read-out: EC50 HCoV-229E-LUC): 5.69; pEC50 ([10]; 48 hrs p.I., Huh-7.5, MOI=0.1, listed as Comp. 3, read-out: EC50 HCoV-229E-LUC): 6.04; pEC50 ([10]; 48 hrs p.I., Huh-7.5, MOI=0.1, read-out: EC50 HCoV-229E-LUC): 6.01
CCC1NC(=O)C(C(O)C(C)Cc2nc3ccc(C(=O)c4ccccc4)cc3[nH]2)N(C)C(=O)C(C(C)C)N(C)C(=O)C(CC(C)C)N(C)C(=O)C(CC(C)C)N(C)C(=O)C(C)NC(=O)C(C)NC(=O)C(CC(C)C)N(C)C(=O)C(C(C)C)NC(=O)C(CC(C)C)N(C)C(=O)CN(C)C1=O (centres unmarked) [Compound 4]	7.85	yes	5.09	–	–	–	–	–	pIC50 [1]: 5.89; pIC50 ([2]; binary PPIase/drug complexes): ~5.00
CCC1NC(=O)C(C(O)C(C)Cc2nc3ccc(-c4nc5ccccc5s4)cc3[nH]2)N(C)C(=O)C(C(C)C)N(C)C(=O)C(CC(C)C)N(C)C(=O)C(CC(C)C)N(C)C(=O)C(C)NC(=O)C(C)NC(=O)C(CC(C)C)N(C)C(=O)C(C(C)C)NC(=O)C(CC(C)C)N(C)C(=O)CN(C)C1=O (centres unmarked) [Compound 5]	7.78	yes	5.64	–	–	–	–	–	pIC50 [1]: 5.92; pIC50 ([2]; binary PPIase/drug complexes): < 5.00
C/C=C/C[C@@H](C)[C@@H](O)[C@H]1C(=O)N[C@@H](C(C)C)C(=O)N(C)CC(=O)N(C)[C@@H](CC(C)C)C(=O)N[C@@H](C(C)C)C(=O)N(C)[C@@H](CC(C)C)C(=O)N[C@@H](C)C(=O)N[C@H](C)C(=O)N(C)[C@@H](CC(C)C)C(=O)N(C)[C@@H](CC(C)C)C(=O)N(C)[C@@H](C(C)C)C(=O)N1C [CsD]	–	remained in the cytoplasm and no	5.60	–	–	–	–	–	immunosuppressant activity in lymphocyte proliferation assays relative to CsA [12]: about 10 % of the CsA activity
C/C=C/C[C@@H](C)[C@@H](O)[C@H]1C(=O)N[C@@H](CC)C(=O)N(C)CC(=O)N(C)[C@@H](CC(C)C)C(=O)N[C@@H](C(C)C)C(=O)N(C)[C@@H](CC(C)C)C(=O)N[C@@H](C)C(=O)N[C@H](C)C(=O)N(C)[C@@H](CC(C)C)C(=O)N(C)[C@@H](CC(C)C)C(=O)N(C)[C@H](C(C)C)C(=O)N1C [CsH, Cyclosporin H]	–	–	–	–	slight residual inhibitory activity; also recorded: do not inhibit	–	–	–	HCoV-229E N protein synthesis (in words) ([8]; at 20 μM): allow significant N protein synthesis
C=CC[C@@H]1/C=C(\C)C[C@H](C)C[C@H](OC)[C@H]2O[C@@](O)(C(=O)C(=O)N3CCCC[C@H]3C(=O)O[C@H](/C(C)=C/[C@@H]3CC[C@@H](O)[C@H](OC)C3)[C@H](C)[C@@H](O)CC1=O)[C@H](C)C[C@@H]2OC [FK506]	–	–	–	–	–	5.53	6.07	5.18	–
C/C=C/C[C@@H](C)[C@@H](O)[C@H]1C(=O)N[C@@H](CC)C(=O)N(C)CC(=O)N(C)[C@@H]([C@@H](C)CC)C(=O)N[C@@H](C(C)C)C(=O)N(C)[C@@H](CC(C)C)C(=O)N[C@@H](C)C(=O)N[C@H](C)C(=O)N(C)[C@@H](CC(C)C)C(=O)N(C)[C@@H](CC(C)C)C(=O)N(C)[C@@H](C(C)C)C(=O)N1C [NIM811]	–	yes	–	1.25	low micromolar range	5.51	5.92	6.10	inhibition of SARS-CoV-RNA replicon propagation (in words) [7]: inhibition; inhibition of murine Coronavirus spread (in words) [9]: inhibits spread; inhibition of feline Coronavirus spread (in words) [11]: inhibits spread

Reference: patent publication US9415087B2, “Compositions and methods for treating coronavirus infection” (LUDWIG-MAXIMILIANS-UNIVERSITAET MUENCHEN, priority 2014, dated 2016)
